What was measured:
mouse bone marrow cells = experiment: Mouse bone marrow micronucleus test by flow cytometry; type: in vivo; settings: mice
Protocol: Experimental grouping and administration: The animals were randomly divided into five groups with 10 […] in each group: blank control group (blank group, administrated blank emulsion with the same volume as the high-dose group of α-asarone), cyclophosphamide group (CTX group, 40 mg/kg), low dose of α-asarone emulsion injection group (prepared by preparation embodiment 7, 100 mg/kg/day, ASA-L group), medium dose of α-asarone emulsion injection group (prepared by preparation embodiment 7, 150 mg/kg/day, ASA-M group), and high dose of α-asarone emulsion injection group (prepared from preparation embodiment 7, 200 mg/kg/day, ASA-H group).
All drugs were administrated through the tail vein for continuous 4 days except for the single injection of the positive control drug cyclophosphamide (CTX) 24 hours before sampling. After 24 hours of the last administration, the mice were sacrificed to separate both femurs. The femoral bone marrow cells were washed with PBS and filtered by 300 mesh nylon cell sieves to prepare a single-cell suspension. The suspension was centrifuged at 1650 rpm for 5 min, and the cell concentration was adjusted to 5×10^6 cells/mL by PBS resuspension. For each sample, 100 μL of the cell suspension was incubated with 400 μL of the PIPES-PI solution (10 mL of PIPES solution (concentration of 3.5 mg/mL)+0.5 mg PI+0.01 mL Triton X-100 (concentration of 0.1%)), gently blown and mixed, at 4° C. in the dark for 30 min and detected by a flow cytometry. […] The higher the value, the stronger the genotoxicity.

SAH rats [1] = experiment: Long-term survival rate of SAH rats; type: in vivo, rat; settings: nimodipine injection 1 mg/kg intraperitoneally, 2 hours after modeling then once a day for 14 days
Protocol: The experimental materials, grouping and modeling methods were the same as those in effect embodiment 1. The rats were immediately administrated 2 hours after SAH modeling according to the grouping administration protocol and continued to be administrated once a day for 14 days thereafter, and the survival of the rats was observed and recorded for 14 days. The mortality rate within 24 hours in group S was as high as 53.8%.

ICH rats = experiment: Short-term neurological function of ICH rats (Garcia score, beam balance test); type: in vivo, rat; settings: for Beam balance score / Garcia score: ICH model, 24 hours after modeling
Protocol: (§1) Experimental grouping: At 2 h after endovascular perforation or collagenase VII injection, Zea Longa score was used to evaluate the neurological function of rats. Successful model rats were randomly divided into groups for administration.
(§2) All groups were administrated through the tail vein injection except for group N administrated intraperitoneally.
The rats were fasted for 12 hours before operation, and were anesthetized with 4% isoflurane, and kept anesthetized with 2% isoflurane. The animals were fixed in the prone position in a stereotaxic apparatus with the body temperature maintained at about 37° C. A traditional skin incision of the head was prepared along the midline. According to the stereotaxic atlas of the rat brain translated by Zhuge Qichao (George Paxinos, Charles Watson, Paxinos, Watson, & Zhuge Qichao. The Rat Brain in Stereotaxic Coordinates [M]. People's Medical Publishing House, 2005), the right caudate nucleus of the rat was determined as 0.0 mm anterior, 3.0 mm lateral to the bregma, and 5.5 mm ventral to the cortical surface. After labeling, we drilled an open window in the skull, and 1 μL of 0.5 U collagenase VII was slowly injected for 5 minutes with a microinjector. After the injection, the needle was stagnated for 8 minutes and slowly withdrawn. Then the scalp was sutured after the burr hole of skull was sealed with a sterile bone wax, and the rats were returned to the cage for normal feeding. The sham group conducted the same procedure as the model group, but received an equal volume of physiological saline into the caudate nucleus.
(§3) According to Zea Longa's neurological function score, the rats were scored 2 hours after the operation when they were awake from anesthesia. Successful model rats with a score of 1 to 3 points were enrolled in the group: • 0 points: no neurological deficits with normal activity; • 1 point: inability to fully extend the contralateral forepaw; • 2 points: the animal appears to turn in circles when crawling; • 3 points: the animal tends to lean to the hemiplegic side; • 4 points: the animal cannot walk spontaneously or loses consciousness. 1.4 Assessment of Short-Term Neurological Function
(§4) The neurological function of rats was comprehensively evaluated with Garcia score and beam balance test 24 hours after modeling. The criteria of Garcia score are shown in Table 1, which evaluates the movement, sensation, climbing and limb symmetry of the rats with the score range of 3 to 18 points. The lower the score, the more severe the neurological injury. The criteria of the beam balance test are shown in Table 2, which evaluated the proprioception and body coordination of rats with the score range of 0 to 6 points. The higher the score, the more severe the neurological injury. Scoring was done independently by a technician blinded to the modeling and drug administration.

SAH rats [2] = experiment: Short-term neurological function of SAH rats (Garcia score, beam balance test, bleeding score); type: in vivo, rat; settings: for Beam balance score / Garcia score: SAH model, 24 hours after modeling
Protocol: as §1, §2
The rats were fasted for 12 hours before operation, and were anesthetized with 4% isoflurane, and kept anesthetized with 2% isoflurane. The animals were fixed in the supine position with the body temperature maintained at about 37° C. A traditional skin incision of the neck was performed along the midline. The muscle and fascia were separated along the medial margin of the sternocleidomastoid muscle to expose the right side, then the common carotid artery (CCA), external carotid artery (ECA) and internal carotid artery (ICA) were bluntly separated with disposal lines placed at CCA proximal end, ICA and ECA for use. The CCA proximal end and the ECA were ligated, and the ICA was temporarily clamped with an arterial clip, and then a small hole was poked with a needle at about 4 mm from the bifurcation at the CCA. A nylon suture was introduced into the CCA from the hole and advanced through the ICA after releasing the arterial clip, and the suture was inserted intracranially. […] The suture moved forward for roughly 2 mm to perforate the artery followed by instant withdraw, and then the suture was completely removed and the ICA was ligated. Finally, the incision was cleaned with normal saline and sutured. The sham group conducted the same procedure as the model group except for the perforation. After awakening from anesthesia, the animals were raised normally.
The SAH severity was grading after rat's euthanasia, i.e., completing the evaluation of short-term neurological function. The score was determined by the amount of subarachnoid hemorrhage on the surface of basal cistern and brain tissue which was divided into six parts by the Willis ring composed of basilar artery, anterior cerebral artery, internal carotid artery, posterior cerebral artery and posterior communicating artery. Each part was graded from 0 to 3 points according to the amount of subarachnoid blood clots, i.e., 0 points: no subarachnoid blood; 1 point: a small amount of subarachnoid blood; 2 points: moderate amount of blood clots with recognizable arteries; 3 points: blood clots cover all arteries in the area. All 6 part scores were added up for a total of 18 points. According to the final score, SAH hemorrhage severity could be divided into mild subarachnoid hemorrhage (0 to 7 points), moderate subarachnoid hemorrhage (8 to 12 points), and severe subarachnoid hemorrhage (13 to 18 points). The moderate to severe SAH models were selected for statistical analysis (score≥8 points).
as §3
as §4, with “The higher the score, the more severe the neurological injury. Scoring was done independently by a technician blinded to the modeling and drug administration.” left out

SAH rats [3] = experiment: Secondary epilepsy in SAH rats (Racine score, seizures); type: in vivo, rat; settings: within 24 hours after SAH, group N, nimodipine injection 1 mg/kg intraperitoneally
Protocol: The experimental materials, grouping, modeling method and administration protocol were the same as those in the effect embodiment 1, and the seizures of rats in each group were observed within 24 hours after SAH.

[4] = CTX group, 40 mg/kg, single injection 24 hours before sampling
[5] = group N, nimodipine injection 1 mg/kg intraperitoneally
[6] = group V, vinpocetine injection 2 mg/kg tail vein
[7] = group B, β-asarone emulsion injection 20 mg/kg tail vein

O=P1(N(CCCl)CCCl)NCCCO1 (centres unmarked) [CTX, cyclophosphamide, reference compound]
MNPCE (mouse bone marrow cells; [4]): 0.86 ± 0.25
PCE (mouse bone marrow cells; [4]): 36.46 ± 8.01
fMNPCE (‰) (mouse bone marrow cells; [4]): 24.36 ± 8.03 ‰
micronucleus rate compared to the blank emulsion group (mouse bone marrow cells; cyclophosphamide 40 mg/kg (P<0.01)): significantly higher

COCCOC(=O)C1=C(C)NC(C)=C(C(=O)OC(C)C)C1c1cccc([N+](=O)[O-])c1 (centres unmarked) [nimodipine, reference compound]
Survival rate (SAH rats [1]; Day 14, group N): 58.3%
24-hour mortality rate (SAH rats [1]; group N): 25.0%
Beam balance score (ICH rats; [5]): 3.89
Garcia score (ICH rats; [5]): 8.92
Beam balance score (SAH rats [2]; [5]): 3.01
Garcia score (SAH rats [2]; [5]): 11.33
Clonic seizures (%) (SAH rats [3]): 18.8%
Racine score (SAH rats [3]): 0.81 ± 1.56
Tonic seizures (%) (SAH rats [3]): 6.2%

CCOC(=O)C1=C[C@]2(CC)CCCN3CCc4c(n1c1ccccc41)[C@@H]32 [vinpocetine, reference compound]
Beam balance score (ICH rats; [6]): 3.27
Garcia score (ICH rats; [6]): 10.56
Beam balance score (SAH rats [2]; [6]): 3.54
Garcia score (SAH rats [2]; [6]): 10.30

C/C=C\c1cc(OC)c(OC)cc1OC [β-asarone, reference compound]
effect against the neurological impairment (ICH rats; ICH model rats, group B, β-asarone emulsion injection 20 mg/kg): no obvious effect
Beam balance score (ICH rats; [7]): 3.76
Garcia score (ICH rats; [7]): 9.12
effect against the neurological impairment (SAH rats [2]; SAH model rats, group B, β-asarone emulsion injection 20 mg/kg): no obvious effect
Beam balance score (SAH rats [2]; [7]): 3.70
Garcia score (SAH rats [2]; [7]): 10.51

— patent US12636260B2, “Application of α-asarone in preparation of medicine for preventing or treating hemorrhagic stroke” (CHENGDU XINRUI TAIKANG TECHNOLOGY CO., LTD., priority 2021, dated 2026)
